Experimental data taken from patent US20250230138A1, “COMPOUNDS HAVING A T-STRUCTURE FORMED BY AT LEAST FOUR CYCLES FOR USE IN THE TREATMENT OF CANCER AND OTHER INDICATIONS” (TheRas, Inc., priority 2022, published 2025).
Where two headings read alike, the source gives them in different places.

Experiments:
pAKT in BT474 cells = experiment: Cell-based pAKT HTRF assay in BT474 cells; conditions: BT474 cells, 4 hr incubation, read-out: pAKT inhibition IC50 in BT474 cells
Outline: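 Cells grown in DMEM with 10% FBS were exposed to compounds for 4 hr in 0.25% DMSO, using a 9-point, 3-fold dilution series that starts at 3 μM. Lysates were incubated with d2 and Eu Cryptate antibodies for 4–24 h at room temperature, and HTRF was read at 615 nm emission.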

[1] = target: Cys242 in human PIK3CA (157-299) (Homo sapiens (Human), UniProt P42336); experiment: Covalent modification assay using MALDI-TOF MS; format: biochemical; conditions: 4 h reaction time point
Outline: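 Covalent adduct formation was read by linear-mode MALDI-TOF with sinapinic acid matrix, reported as modified-protein peak height divided by total protein peak heights. Reactions held PIK3CA (157-299) at 1 or 3.33 μM in HEPES/NaCl/MgCl2 buffer, pH 7.3, sampled after 15 min to 4 h at room temperature.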

[2] = 1 μM protein target, 1:5 protein to compound ratio (compounds 853-1279)
[3] = Homo sapiens, BT-474, Compounds 10-999
[4] = 3.33 μM protein target, 1:7.5 protein to compound ratio (compounds 1-852)

Sequence of Cys242 in human PIK3CA (157-299) (P42336 157-299): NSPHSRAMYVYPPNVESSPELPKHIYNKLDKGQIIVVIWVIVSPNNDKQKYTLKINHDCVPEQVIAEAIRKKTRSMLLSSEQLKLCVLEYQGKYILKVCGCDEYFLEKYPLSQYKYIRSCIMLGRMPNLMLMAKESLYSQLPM

SMILES | IC50 (pAKT in BT474 cells; Compounds 1000-1279) [nM] | IC50 (pAKT in BT474 cells; [3]) [nM] | IC50 (pAKT in BT474 cells; Compounds 10-999) [nM] | % of modification [1, 2] | % of modification [1, 4]
C=CC(=O)N1CCn2nc(-c3nc(-c4ccc(CC(=O)N5CC(F)(F)C5)cc4)c4ccsc4c3-c3c(F)cc(F)cc3OCCOC)cc2C1C (stereo not drawn) [Compound 1102] | < 100 | – | – | A (percent of modification of PIK3CA protein ≥75%) | –
C=CC(=O)N1Cc2cc(-c3nc(-c4cnn(C)c4)c4ccsc4c3-c3ccc(F)cc3OC(C)C)nn2[C@H](C)C1 [Compound 357, 1-((7R)-2-(7-(4-fluoro-2-isopropoxyphenyl)-4-(1-methyl-1H-pyrazol-4-yl)thieno[3,2-c]pyridin-6-yl)-7-methyl-6,7-dihydropyrazolo[1,5-a]pyrazin-5(4H)-yl)prop-2-en-1-one] | – | < 100 | – | – | A (percent of modification of PIK3CA protein ≥75%)
C=CC(=O)N1CCc2ncc(-c3nc(-c4cnnc(C)c4)c4ccsc4c3-c3c(F)cc(F)cc3OCCOC)cc2C1 [Compound 383] | – | – | < 100 | – | A (percent of modification of PIK3CA protein ≥75%)
C=CC(=O)N1CCc2ncc(-c3nc(-c4cnn(C)c4)c4ccsc4c3-c3c(F)cc(F)cc3OCCOC)cc2C1 [Compound 393] | – | – | < 100 | – | A (percent of modification of PIK3CA protein ≥75%)
C=CC(=O)N1CCc2nc(-c3nc(-c4cccc(C(C)(C)C#N)c4)c4ccsc4c3-c3c(F)cc(F)cc3OCCOC)sc2C1 [Compound 440] | – | – | 100 to 1000 | – | D (percent of modification <25%)
C=CC(=O)N1CCn2nc(-c3nc(-c4ccc(=O)n(C(C)C)c4)c4ccsc4c3-c3c(F)cc(F)cc3OCCOC)cc2C1C (stereo not drawn) [Compound 987] | – | – | < 100 | A (percent of modification of PIK3CA protein ≥75%) | –
C=CC(=O)N1CC(n2cc(-c3nc(-c4ccc5c(c4)CNC(=O)C5)c4ccsc4c3-c3ccc[nH]c3=O)cn2)C1 [Compound 91] | – | – | > 3000 | – | D (percent of modification <25%)
C=CC(=O)N1Cc2cc(-c3nc(-c4cnnc(C)c4)c4ccsc4c3-c3c(F)cc(F)cc3OCCO)nn2CC1C (stereo not drawn) [Compound 829] | – | – | < 100 | – | A (percent of modification of PIK3CA protein ≥75%)
C=CC(=O)N1CCc2ccc(-c3nc(-c4cnc(N(C)C)nc4)c4ccsc4c3-c3c(F)cc(F)cc3OCCOC)cc2C1 [Compound 1068] | > 1000 | – | – | D (percent of modification <25%) | –
C=CC(=O)N1CCc2nc(-c3nc(-c4ccc5c(c4)CCNC5)c4ccsc4c3-c3ccc(F)cc3OC)sc2C1 [Compound 87, 1-[2-[7-(4-fluoro-2-methoxy-phenyl)-4-(1,2,3,4-tetrahydroisoquinolin-6-yl)thieno[3,2-c]pyridin-6-yl]-6,7-dihydro-4H-thiazolo[5,4-c]pyridin-5-yl]prop-2-en-1-one] | – | 100 to 1000 | – | – | A (percent of modification of PIK3CA protein ≥75%)
C=CC(=O)N1C[C@H](C)n2nc(-c3nc(-c4cnn(C)c4)c4ccsc4c3-c3c(F)cc(F)cc3OCCOC)cc2[C@@H]1C [Compound 607] | – | – | < 100 | – | A (percent of modification of PIK3CA protein ≥75%)
C=CC(=O)N1Cc2cc(-c3nc(-c4ccc(P(C)(C)=O)cc4)c4ccsc4c3-c3c(F)cc(F)cc3OCCOC)nn2C[C@H]1C [Compound 800, 1-[(6R)-2-[7-[2,4-difluoro-6-(2-methoxyethoxy)phenyl]-4-(4-dimethylphosphorylphenyl)thieno[3,2-c]pyridin-6-yl]-6-methyl-6,7-dihydro-4H-pyrazolo[1,5-a]pyrazin-5-yl]prop-2-en-1-one] | – | < 100 | – | – | A (percent of modification of PIK3CA protein ≥75%)
C=CC(=O)N1CCn2nc(-c3nc(-c4ccc5ncn(C)c(=O)c5c4)c4ccsc4c3-c3c(F)cc(F)cc3OCCOC)cc2C1C (stereo not drawn) [Compound 925] | – | – | < 100 | A (percent of modification of PIK3CA protein ≥75%) | –
C=CC(=O)N1CCn2nc(-c3nc(N4Cc5cn(C)nc5C4)c4ccsc4c3-c3c(F)cc(F)cc3OCCOC)cc2C1C (stereo not drawn) [Compound 1230] | 100 to 1000 | – | – | A (percent of modification of PIK3CA protein ≥75%) | –
C=CC(=O)N1CCc2nc(-c3nc(-c4ccc5c(c4)CCN(CCO)C5)c4ccsc4c3-c3ccc(F)cc3OCCOC)sc2C1 [Compound 128] | – | – | < 100 | – | A (percent of modification of PIK3CA protein ≥75%)
C=CC(=O)N1CCn2nc(-c3nc(-c4cnc(C)nc4)c4ccsc4c3-c3c(F)cc(F)cc3OCCOC)cc2C1C (stereo not drawn) [Compound 792] | – | – | < 100 | – | A (percent of modification of PIK3CA protein ≥75%)
C=CC(=O)N1CCn2nc(-c3nc(-c4cnc5c(c4)CN(C)CC5(C)C)c4ccsc4c3-c3c(F)cc(F)cc3OCCOC)cc2[C@H]1C [Compound 1161] | < 100 | – | – | A (percent of modification of PIK3CA protein ≥75%) | –

Now from value to compound, other results behind:

IC50 (pAKT in BT474 cells; Compounds 1000-1279) [nM] | IC50 (pAKT in BT474 cells; [3]) [nM] | IC50 (pAKT in BT474 cells; Compounds 10-999) [nM] | SMILES | % of modification [1, 2] | % of modification [1, 4]
– | – | 100 to 1000 | C=C(F)C(=O)N1CCn2nc(-c3nc(-c4ccc(=O)[nH]c4)c4ccsc4c3-c3ccc(F)cc3OC(C)C)cc2C1 [Compound 307] | – | A (percent of modification of PIK3CA protein ≥75%)
– | – | < 100 | C=C(F)C(=O)N1CCn2nc(-c3nc(-c4ccc5c(c4)[C@@H](O)CC5)c4ccsc4c3-c3c(F)cc(F)cc3OC(C)C)cc2C1 [Compound 354] | – | B (50%<percent of modification <75%)
– | – | 100 to 1000 | C=CC(=O)N1CCC(n2cc(-c3nc(-c4ccc5c(c4)CCNC5)c4ccsc4c3-c3c(F)cc(F)cc3OC(C)C)cn2)C1 (stereo not drawn) [Compound 410] | – | A (percent of modification of PIK3CA protein ≥75%)
– | – | < 100 | C=CC(=O)N1Cc2cc(-c3nc(-c4cnn(CC(C)(C)O)c4)c4ccsc4c3-c3c(F)cc(F)cc3OC(C)C)nn2[C@@H](C)C1 [Compound 493] | – | A (percent of modification of PIK3CA protein ≥75%)
– | – | < 100 | C=CC(=O)N1Cc2cc(-c3nc(-c4ccc5nn(C)cc5c4)c4ccsc4c3-c3c(F)cc(F)cc3OC)nn2C[C@H]1C [Compound 821] | – | A (percent of modification of PIK3CA protein ≥75%)
– | – | < 100 | C=CC(=O)N1CCn2nc(-c3nc(-c4ccc5c(c4)CCNC5)c4ccsc4c3-c3ccc(F)cc3OC(F)F)cc2C1 [Compound 222] | – | A (percent of modification of PIK3CA protein ≥75%)
– | – | < 100 | C=C(F)C(=O)N1CCn2nc(-c3nc(-c4ccc5c(c4)CCN(C(C)C)C5)c4ccsc4c3-c3ccc(F)cc3OC(C)C)cc2C1 [Compound 294] | – | A (percent of modification of PIK3CA protein ≥75%)
– | – | < 100 | C=CC(=O)N1CCc2ncc(-c3nc(-c4ccc5c(c4)C(O)CC5)c4ccsc4c3-c3c(F)cc(F)cc3OCCOC)cc2C1 (stereo not drawn) [Compound 397] | – | A (percent of modification of PIK3CA protein ≥75%)
– | < 100 | – | C=CC(=O)N1CCn2nc(-c3nc(-c4ccc5c(c4)CCN(C(C)C)C5)c4ccsc4c3-c3ccc(F)cc3OCCOC)cc2C1 [Compound 190, 1-[2-[7-[4-fluoro-2-(2-methoxyethoxy)phenyl]-4-(2-isopropyl-3,4-dihydro-1H-isoquinolin-6-yl)thieno[3,2-c]pyridin-6-yl]-6,7-dihydro-4H-pyrazolo[1,5-a]pyrazin-5-yl]prop-2-en-1-one] | – | A (percent of modification of PIK3CA protein ≥75%)
– | – | 100 to 1000 | CC(C)Oc1cc(F)ccc1-c1c(-c2cc3n(n2)CCN(C(=O)/C=C/CN(C)C)C3)nc(-c2ccc3c(c2)CCNC3=O)c2ccsc12 [Compound 285] | – | B (50%<percent of modification <75%)
– | – | < 100 | C=CC(=O)N1Cc2cc(-c3nc(-c4cnc5c(c4)CN(C)C5=O)c4ccsc4c3-c3c(F)cc(F)cc3OC(C)C)nn2[C@@H](C)C1 [Compound 505] | – | A (percent of modification of PIK3CA protein ≥75%)
– | < 100 | – | C=CC(=O)N1CCn2nc(-c3nc(-n4cc(C)cn4)c4ccsc4c3-c3ccc(F)cc3OC(C)C)cc2C1 [Compound 317, 1-[2-[7-(4-fluoro-2-isopropoxy-phenyl)-4-(4-methylpyrazol-1-yl)thieno[3,2-c]pyridin-6-yl]-6,7-dihydro-4H-pyrazolo[1,5-a]pyrazin-5-yl]prop-2-en-1-one] | – | A (percent of modification of PIK3CA protein ≥75%)
< 100 | – | – | C=CC(=O)N1CCn2nc(-c3nc(-c4ccc5c(c4)CN(C)CC5)c4ccsc4c3-c3c(F)cc(F)cc3OCCOC)cc2C1C (stereo not drawn) [Compound 1104] | A (percent of modification of PIK3CA protein ≥75%) | –
